Source: article PMC6086658, “Unified mechanisms for self-RNA recognition by RIG-I Singleton-Merten syndrome variants” (eLife, 2018)
Residue numbers refer to the chain shown, from its start. Read-outs that look alike come from different tables or passages of the source.

Columns and labels:
RIG-I E373Q = biological target: T1, RIG-I E373Q (Homo sapiens, UniProt O95786, E373Q); assay: MANT-nucleotide binding, tryptophan fluorescence FRET; details: n = 4
T1 construct: different full-length RIG-I mutants (1–925, N-terminal His-tag); made in house; host or cells: High Five (Trichoplusia ni) insect cells, baculovirus, pFBDM vector
T1 sequence (O95786 1-925 E373Q): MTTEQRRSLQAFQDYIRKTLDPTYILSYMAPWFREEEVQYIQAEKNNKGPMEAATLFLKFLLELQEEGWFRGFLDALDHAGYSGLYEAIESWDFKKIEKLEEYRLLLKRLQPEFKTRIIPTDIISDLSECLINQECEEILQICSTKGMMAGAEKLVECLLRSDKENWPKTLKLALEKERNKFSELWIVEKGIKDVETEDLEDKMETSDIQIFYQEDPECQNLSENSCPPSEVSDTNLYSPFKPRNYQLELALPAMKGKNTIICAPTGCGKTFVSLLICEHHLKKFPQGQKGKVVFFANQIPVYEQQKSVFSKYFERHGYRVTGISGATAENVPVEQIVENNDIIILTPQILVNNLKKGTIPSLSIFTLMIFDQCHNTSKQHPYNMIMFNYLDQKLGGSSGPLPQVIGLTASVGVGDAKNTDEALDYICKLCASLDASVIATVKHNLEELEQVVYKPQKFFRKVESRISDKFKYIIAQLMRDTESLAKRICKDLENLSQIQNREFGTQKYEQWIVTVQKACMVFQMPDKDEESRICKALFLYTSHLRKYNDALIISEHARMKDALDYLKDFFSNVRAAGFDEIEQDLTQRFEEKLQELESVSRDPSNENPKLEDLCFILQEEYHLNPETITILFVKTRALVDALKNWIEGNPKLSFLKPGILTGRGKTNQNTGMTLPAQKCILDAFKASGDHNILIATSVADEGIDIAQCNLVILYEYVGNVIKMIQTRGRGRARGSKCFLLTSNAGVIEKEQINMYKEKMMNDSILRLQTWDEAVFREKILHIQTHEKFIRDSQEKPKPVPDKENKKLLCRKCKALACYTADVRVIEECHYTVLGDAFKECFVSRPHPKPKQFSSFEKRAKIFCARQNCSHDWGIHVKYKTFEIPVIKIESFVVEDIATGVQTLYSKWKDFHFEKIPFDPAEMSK
Method: (§1) Binding of MANT-ATP and MANT-ATPγS to different full-length RIG-I mutants (1–925, N-terminal His-tag) was determined via Förster resonance energy transfer from RIG-I to MANT-ATP (Jena Bioscience, Jena, Germany). […] Fluorescence of MANT-ATP was measured in a TECAN M1000 microplate reader at λex/em = 290/448 nm, gain = 170 using an average of five reads per well. Assays were performed four times in independent experiments using the same protein purification batch. For determination of affinities fluorescence values were fitted to Equation (1) using R, where y is the fluorescence, [P] is the protein concentration, Bmax is the maximal fluorescence and KD is the dissociation constant. Fitting was performed globally on all available datasets. Representative values in figures are mean values ± SD.

RIG-I = biological target: T2, RIG-I (Homo sapiens, UniProt O95786); assay: as above; details: absence of RNA; full-length His-RIG-I; n = 4; read-out: Affinity (KD) to RIG-I
T2 construct: Recombinant full-length human RIG-I or RIG-I single amino acid mutants (1–925, N-terminal His-tag); made in house; host or cells: High Five (Trichoplusia ni) insect cells, baculovirus, pFBDM vector
T2 sequence (O95786 1-925): T1 sequence (O95786 1-925 E373Q) with Q373E
Method: as §1

Q: MANT-ATP was tested. Which Kd (RIG-I E373Q; absence of RNA, read-out: Affinity (KD) to RIG-I E373Q) did it give?
A: The Kd was 72 ± 13 µM.

Q: And the Kd (RIG-I E373Q; presence of equimolar 14mer dsRNA, read-out: Affinity (KD) to RIG-I E373Q + RNA)?
A: Its Kd is 28 ± 5 µM.

Q: And the Kd (RIG-I)?
A: The Kd was 72 ± 13 µM.
